Reference: patent publication US12459951B2, “Compounds that interact with RAS superfamily proteins for treatment of cancers, inflammatory diseases, rasopathies, and fibrotic disease” (SHY Therapeutics, LLC, priority 2022, dated 2025)

Assays:
Akt phosphorylation = test: Akt Phosphorylation Assay (western blot), Panc-1; assay type: cell-based, human; details: at 10 μM, * = activation
In short: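 Phospho-Akt (Ser473) was measured by western blot in lysates of KRas G12D Panc-1 cells exposed to test compound for 6 h at 37 °C, either at 10 μM final with 0.3% DMSO or as serial dilutions for IC50. One format used overnight 0.5% FBS starvation followed by a 15 min pulse of 1.5 ng/ml EGF. The other used cells in 10% FBS with no stimulation.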

KRas G12D mutant = test: Ras GTP Binding Domain Inhibition Assay (Ras Superfamily Assay); details: at 20 μM; for KRas G12D mutant + SOS: % inh.: with SOS; for KRas G12D mutant: % inh.: without SOS
In short: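 Binding of 100 nM fluorescent GTP (Cy3 or Cy5, 45 min, room temperature) was read after washes from plate-captured His-tagged protein. Beforehand, compounds at 20 μM or in dilution series for IC50 sat 3 h on the protein in Tris buffer pH 7.4 or 7.0 with 1% DMSO, Sos GEF optionally added for the last hour.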

| Structure (SMILES) | % inh of Akt phosphorylation in Panc-1 (Akt phosphorylation) | KRas G12D mutant + SOS: % inh. (KRas G12D mutant) | KRas G12D mutant: % inh. (KRas G12D mutant) |
| --- | --- | --- | --- |
| COc1cccc(-c2cn3nc(-c4nccn4C)nc(N[C@@H]4CC[C@H]4OC)c3c2-c2ccccc2)c1C (racemic) [Compound 272, rac 6-(3-Methoxy-2-methylphenyl)-N-((1R,2R)-2-methoxycyclobutyl)-2-(1-methyl-1H-imidazol-2-yl)-5-phenylpyrrolo[2,1-f][1,2,4]triazin-4-amine] | D (85-100% inhibition) | A (A = 1-25% inhibition) | C (C = 50-75% inhibition) |
| COc1cc(Nc2nc(-c3nccn3C)nn3cc(-c4ccn(C)n4)c(C)c23)ncc1-n1cnc(C)c1 [Compound 244, N-(4-Methoxy-5-(4-methyl-1H-imidazol-1-yl)pyridin-2-yl)-5-methyl-2-(1-methyl-1H-imidazol-2-yl)-6-(1-methyl-1H-pyrazol-3-yl)pyrrolo[2,1-f][1,2,4]triazin-4-amine] | D* (85-100% activation) | D (D = 76-100% inhibition) | D (D = 76-100% inhibition) |
| Cc1c(-c2ccn(C)n2)cn2nc(-c3nccn3C)nc(Nc3cc(-n4ccnc4)ccn3)c12 [Compound 245, N-(4-(1H-imidazol-1-yl)pyridin-2-yl)-5-methyl-2-(1-methyl-1H-imidazol-2-yl)-6-(1-methyl-1H-pyrazol-3-yl)pyrrolo[2,1-f][1,2,4]triazin-4-amine] | D* (85-100% activation) | C (C = 50-75% inhibition) | C (C = 50-75% inhibition) |
| Cc1c(-c2ccn(C)n2)cn2nc(-c3nccn3C)nc(Nc3cc(-n4ccnc4C)ccn3)c12 [Compound 246, 5-Methyl-N-(4-(2-methyl-1H-imidazol-1-yl)pyridin-2-yl)-2-(1-methyl-1H-imidazol-2-yl)-6-(1-methyl-1H-pyrazol-3-yl)pyrrolo[2,1-f][1,2,4]triazin-4-amine] | D* (85-100% activation) | D (D = 76-100% inhibition) | D (D = 76-100% inhibition) |
| Cc1c(-c2ccn(C)n2)cn2nc(-c3nccn3C)nc(Nc3ccc(N4CCOCC4)cn3)c12 [Compound 247, 5-Methyl-2-(1-methyl-1H-imidazol-2-yl)-6-(1-methyl-1H-pyrazol-3-yl)-N-(5-morpholinopyridin-2-yl)pyrrolo[2,1-f][1,2,4]triazin-4-amine] | D* (85-100% activation) | D (D = 76-100% inhibition) | D (D = 76-100% inhibition) |
| Cc1c(-c2ccn(C)n2)cn2nc(-c3nccn3C)nc(Nc3cc(-c4ccccn4)ccn3)c12 [Compound 248, N-([2,4′-Bipyridin]-2′-yl)-5-methyl-2-(1-methyl-1H-imidazol-2-yl)-6-(1-methyl-1H-pyrazol-3-yl)pyrrolo[2,1-f][1,2,4]triazin-4-amine] | D* (85-100% activation) | D (D = 76-100% inhibition) | D (D = 76-100% inhibition) |
| Cc1c(-c2ccn(C)n2)cn2nc(-c3nccn3C)nc(Nc3ccc(-c4ccccn4)cn3)c12 [Compound 249, N-([2,3′-Bipyridin]-6′-yl)-5-methyl-2-(1-methyl-1H-imidazol-2-yl)-6-(1-methyl-1H-pyrazol-3-yl)pyrrolo[2,1-f][1,2,4]triazin-4-amine] | D* (85-100% activation) | C (C = 50-75% inhibition) | C (C = 50-75% inhibition) |
| Cc1c(-c2ccn(C)n2)cn2nc(-c3nccn3C)nc(Nc3cc(-c4cccnc4)ccn3)c12 [Compound 250, N-([3,4′-Bipyridin]-2′-yl)-5-methyl-2-(1-methyl-1H-imidazol-2-yl)-6-(1-methyl-1H-pyrazol-3-yl)pyrrolo[2,1-f][1,2,4]triazin-4-amine] | D* (85-100% activation) | D (D = 76-100% inhibition) | D (D = 76-100% inhibition) |
| Cc1c(-c2ccn(C)n2)cn2nc(-c3nccn3C)nc(N3CCc4cc(C(F)(F)F)cnc43)c12 [Compound 251, 5-Methyl-2-(1-methyl-1H-imidazol-2-yl)-6-(1-methyl-1H-pyrazol-3-yl)-4-(5-(trifluoromethyl)-2,3-dihydro-1H-pyrrolo[2,3-b]pyridin-1-yl)pyrrolo[2,1-f][1,2,4]triazine] | A (1-25% inhibition) | B (B = 26-49% inhibition) | C (C = 50-75% inhibition) |
| COc1cc(Nc2nc(-c3nccn3C)nn3cc(-c4ccn(C)n4)c(C)c23)n[nH]1 [Compound 252, N-(5-Methoxy-1H-pyrazol-3-yl)-5-methyl-2-(1-methyl-1H-imidazol-2-yl)-6-(1-methyl-1H-pyrazol-3-yl)pyrrolo[2,1-f][1,2,4]triazin-4-amine] | D* (85-100% activation) | D (D = 76-100% inhibition) | D (D = 76-100% inhibition) |
| COc1cc(Nc2nc(-c3nccn3C)nn3cc(-c4ccn(C)n4)c(C)c23)nn1C [Compound 253, N-(5-Methoxy-1-methyl-1H-pyrazol-3-yl)-5-methyl-2-(1-methyl-1H-imidazol-2-yl)-6-(1-methyl-1H-pyrazol-3-yl)pyrrolo[2,1-f][1,2,4]triazin-4-amine] | D* (85-100% activation) | D (D = 76-100% inhibition) | C (C = 50-75% inhibition) |
| Cc1c(-c2ccn(C)n2)cn2nc(-c3nccn3C)nc(Nc3cc(OC(F)F)n(C)n3)c12 [Compound 254, N-(5-(Difluoromethoxy)-1-methyl-1H-pyrazol-3-yl)-5-methyl-2-(1-methyl-1H-imidazol-2-yl)-6-(1-methyl-1H-pyrazol-3-yl)pyrrolo[2,1-f][1,2,4]triazin-4-amine] | D* (85-100% activation) | D (D = 76-100% inhibition) | D (D = 76-100% inhibition) |
| Cc1cc(Nc2nc(-c3nccn3C)nn3cc(-c4ccn(C)n4)c(C)c23)n[nH]1 [Compound 255, 5-Methyl-2-(1-methyl-1H-imidazol-2-yl)-6-(1-methyl-1H-pyrazol-3-yl)-N-(5-methyl-1H-pyrazol-3-yl)pyrrolo[2,1-f][1,2,4]triazin-4-amine] | D* (85-100% activation) | D (D = 76-100% inhibition) | D (D = 76-100% inhibition) |
| Cc1c(-c2ccn(C)n2)cn2nc(-c3nccn3C)nc(Nc3cc[nH]n3)c12 [Compound 256, 5-Methyl-2-(1-methyl-1H-imidazol-2-yl)-6-(1-methyl-1H-pyrazol-3-yl)-N-(1H-pyrazol-3-yl)pyrrolo[2,1-f][1,2,4]triazin-4-amine] | D* (85-100% activation) | D (D = 76-100% inhibition) | D (D = 76-100% inhibition) |
| Cc1c(-c2ccn(C)n2)cn2nc(-c3nccn3C)nc(Nc3cc(C4CCC4)[nH]n3)c12 [Compound 257, N-(5-Cyclobutyl-1H-pyrazol-3-yl)-5-methyl-2-(1-methyl-1H-imidazol-2-yl)-6-(1-methyl-1H-pyrazol-3-yl)pyrrolo[2,1-f][1,2,4]triazin-4-amine] | D* (85-100% activation) | D (D = 76-100% inhibition) | D (D = 76-100% inhibition) |
| Cc1c(-c2ccn(C)n2)cn2nc(-c3nccn3C)nc(Nc3cc(C(F)F)[nH]n3)c12 [Compound 258, N-(5-(Difluoromethyl)-1H-pyrazol-3-yl)-5-methyl-2-(1-methyl-1H-imidazol-2-yl)-6-(1-methyl-1H-pyrazol-3-yl)pyrrolo[2,1-f][1,2,4]triazin-4-amine] | A (1-25% inhibition) | 0 (0 = 0% inhibition) | 0 (0 = 0% inhibition) |
| Cc1c(-c2ccn(C)n2)cn2nc(-c3nccn3C)nc(Nc3cc(C(F)(F)F)[nH]n3)c12 [Compound 259, 5-Methyl-2-(1-methyl-1H-imidazol-2-yl)-6-(1-methyl-1H-pyrazol-3-yl)-N-(5-(trifluoromethyl)-1H-pyrazol-3-yl)pyrrolo[2,1-f][1,2,4]triazin-4-amine] | D* (85-100% activation) | D (D = 76-100% inhibition) | C (C = 50-75% inhibition) |
| CCOc1cc(Nc2nc(-c3nccn3C)nn3cc(-c4ccn(C)n4)c(C)c23)n[nH]1 [Compound 260, N-(5-Ethoxy-1H-pyrazol-3-yl)-5-methyl-2-(1-methyl-1H-imidazol-2-yl)-6-(1-methyl-1H-pyrazol-3-yl)pyrrolo[2,1-f][1,2,4]triazin-4-amine] | C* (46-84% activation) | C (C = 50-75% inhibition) | C (C = 50-75% inhibition) |
| Cc1c(-c2ccn(C)n2)cn2nc(-c3nccn3C)nc(-n3[nH]c(N)cc3=O)c12 [Compound 261, 5-Amino-2-(5-methyl-2-(1-methyl-1H-imidazol-2-yl)-6-(1-methyl-1H-pyrazol-3-yl)pyrrolo[2,1-f][1,2,4]triazin-4-yl)-1,2-dihydro-3H-pyrazol-3-one] | B (26-49% inhibition) | C (C = 50-75% inhibition) | D (D = 76-100% inhibition) |
